Legend:
Assay type in all cases: functional
PC-3 = experiment: Cytotoxicity against human PC3 cells by sulforhodamine B assay
MDA-MB-435 = experiment: Cytotoxicity against human MDA-MB-435 cells by sulforhodamine B assay
NCI-H226 = experiment: Cytotoxicity against human NCI-H226 cells by sulforhodamine B assay
COLO 205 = experiment: Cytotoxicity against human COLO205 cells by sulforhodamine B assay
SR = experiment: Cytotoxicity against human SR cells by sulforhodamine B assay
OVCAR-8 = experiment: Cytotoxicity against human OVCAR8 cells by sulforhodamine B assay
NCI-H322M = experiment: Cytotoxicity against human NCI-H322M cells by sulforhodamine B assay
NCI-H522 = experiment: Cytotoxicity against human NCI-H522 cells by sulforhodamine B assay
[1] = Cytotoxicity against human OVCAR5 cells by sulforhodamine B assay
MCF7 = experiment: Cytotoxicity against human MCF7 cells by sulforhodamine B assay
HOP-62 = experiment: Cytotoxicity against human HOP62 cells by sulforhodamine B assay
[2] = Cytotoxicity against human NCI-ADR-RES cells by sulforhodamine B assay
NCI-H460 = experiment: Cytotoxicity against human NCI-H460 cells by sulforhodamine B assay
SK-MEL-5 = experiment: Cytotoxicity against human SK-MEL-5 cells by sulforhodamine B assay
SF-268 = experiment: Cytotoxicity against human SF268 cells by sulforhodamine B assay
T47D = experiment: Cytotoxicity against human T47D cells by sulforhodamine B assay
CAKI-1 = experiment: Cytotoxicity against human CAKI-1 cells by sulforhodamine B assay
OVCAR-3 = experiment: Cytotoxicity against human OVCAR3 cells by sulforhodamine B assay
SW-620 = experiment: Cytotoxicity against human SW620 cells by sulforhodamine B assay
MDA-MB-231 = experiment: Cytotoxicity against human MDA-MB-231 cells by sulforhodamine B assay
RPMI-8226 = experiment: Cytotoxicity against human RPMI8226 cells by sulforhodamine B assay
HCT-116 = experiment: Cytotoxicity against human HCT116 cells by sulforhodamine B assay
SF-539 = experiment: Cytotoxicity against human SF539 cells by sulforhodamine B assay
IGROV-1 = experiment: Cytotoxicity against human IGROV1 cells by sulforhodamine B assay
SF-295 = experiment: Cytotoxicity against human SF295 cells by sulforhodamine B assay
SK-MEL-2 = experiment: Cytotoxicity against human SK-MEL-2 cells by sulforhodamine B assay
U-251 = experiment: Cytotoxicity against human U251 cells by sulforhodamine B assay
HCT-15 = experiment: Cytotoxicity against human HCT15 cells by sulforhodamine B assay
ACHN = experiment: Cytotoxicity against human ACHN cells by sulforhodamine B assay
SK-OV-3 = experiment: Cytotoxicity against human SKOV3 cells by sulforhodamine B assay
RXF 393 = experiment: Cytotoxicity against human RXF393 cells by sulforhodamine B assay
MOLT-4 = experiment: Cytotoxicity against human MOLT4 cells by sulforhodamine B assay
HCC 2998 = experiment: Cytotoxicity against human HCC2998 cells by sulforhodamine B assay
LOX IMVI = experiment: Cytotoxicity against human LOXIMVI cells by sulforhodamine B assay
SNB-19 = experiment: Cytotoxicity against human SNB19 cells by sulforhodamine B assay
[3] = Cytotoxicity against human UACC257 cells by sulforhodamine B assay
[4] = Cytotoxicity against human UO31 cells by sulforhodamine B assay
M14 = experiment: Cytotoxicity against human M14 cells by sulforhodamine B assay
786-0 = experiment: Cytotoxicity against human 786-0 cells by sulforhodamine B assay
[5] = read-out: LC50 (the source's name)

COc1ccc(C(=O)/C=C/c2ccc(/C=C/c3cc(OC)c(OC)c(OC)c3)cc2)cc1
GI50 (PC-3): 5.65 µM
TGI (PC-3): > 100 µM
CC50 (PC-3; [5]): > 100 µM
GI50 (MDA-MB-435): 4.28 µM
TGI (MDA-MB-435): 47.7 µM
CC50 (MDA-MB-435; [5]): > 100 µM
GI50 (NCI-H226): 3.57 µM
TGI (NCI-H226): 22.8 µM
CC50 (NCI-H226; [5]): > 100 µM
GI50 (COLO 205): 13.7 µM
TGI (COLO 205): > 100 µM
CC50 (COLO 205; [5]): > 100 µM
GI50 (SR): 1.98 µM
TGI (SR): > 100 µM
CC50 (SR; [5]): > 100 µM
GI50 (OVCAR-8): 3.76 µM
TGI (OVCAR-8): 61.1 µM
CC50 (OVCAR-8; [5]): > 100 µM
GI50 (NCI-H322M): 1.98 µM
TGI (NCI-H322M): > 100 µM
CC50 (NCI-H322M; [5]): > 100 µM
GI50 (NCI-H522): 3.3 µM
TGI (NCI-H522): 30.7 µM
CC50 (NCI-H522; [5]): > 100 µM
GI50 ([1]; OVCAR-5): 34.1 µM
TGI ([1]; OVCAR-5): > 100 µM
CC50 ([1]; OVCAR-5, read-out: LC50 (the source's name)): > 100 µM
GI50 (MCF7): 2.18 µM
TGI (MCF7): 36.6 µM
CC50 (MCF7; [5]): > 100 µM
GI50 (HOP-62): 1.28 µM
TGI (HOP-62): 63.8 µM
CC50 (HOP-62; [5]): > 100 µM
GI50 [2]: 5.46 µM
TGI [2]: > 100 µM
CC50 [2, 5]: > 100 µM
GI50 (NCI-H460): 8.65 µM
TGI (NCI-H460): > 100 µM
CC50 (NCI-H460; [5]): > 100 µM
GI50 (SK-MEL-5): 3.39 µM
TGI (SK-MEL-5): 19.2 µM
CC50 (SK-MEL-5; [5]): > 100 µM
GI50 (SF-268): 6.08 µM
TGI (SF-268): 88.3 µM
CC50 (SF-268; [5]): > 100 µM
GI50 (T47D): 6.19 µM
TGI (T47D): > 100 µM
CC50 (T47D; [5]): > 100 µM
GI50 (CAKI-1): 14.6 µM
TGI (CAKI-1): > 100 µM
CC50 (CAKI-1; [5]): > 100 µM
GI50 (OVCAR-3): 3.92 µM
TGI (OVCAR-3): 14.3 µM
CC50 (OVCAR-3; [5]): 74.4 µM
GI50 (SW-620): 4.5 µM
TGI (SW-620): > 100 µM
CC50 (SW-620; [5]): > 100 µM
GI50 (MDA-MB-231): 10.2 µM
TGI (MDA-MB-231): > 100 µM
CC50 (MDA-MB-231; [5]): > 100 µM
GI50 (RPMI-8226): 2.57 µM
TGI (RPMI-8226): 8.54 µM
CC50 (RPMI-8226; [5]): > 100 µM
GI50 (HCT-116): 2.62 µM
TGI (HCT-116): > 100 µM
CC50 (HCT-116; [5]): > 100 µM
GI50 (SF-539): 12.2 µM
TGI (SF-539): 78.3 µM
CC50 (SF-539; [5]): > 100 µM
GI50 (IGROV-1): 9.24 µM
TGI (IGROV-1): 76.4 µM
CC50 (IGROV-1; [5]): > 100 µM
GI50 (SF-295): 9.01 µM
TGI (SF-295): > 100 µM
CC50 (SF-295; [5]): > 100 µM
GI50 (SK-MEL-2): 1.89 µM
TGI (SK-MEL-2): > 100 µM
CC50 (SK-MEL-2; [5]): > 100 µM
GI50 (U-251): 5.09 µM
TGI (U-251): 54.7 µM
CC50 (U-251; [5]): > 100 µM
GI50 (HCT-15): 2.42 µM
TGI (HCT-15): > 100 µM
CC50 (HCT-15; [5]): > 100 µM
GI50 (ACHN): 11.6 µM
TGI (ACHN): > 100 µM
CC50 (ACHN; [5]): > 100 µM
GI50 (SK-OV-3): 15.6 µM
TGI (SK-OV-3): 64.5 µM
CC50 (SK-OV-3; [5]): > 100 µM
GI50 (RXF 393): 8.01 µM
TGI (RXF 393): 43.6 µM
CC50 (RXF 393; [5]): > 100 µM
GI50 (MOLT-4): 3.49 µM
TGI (MOLT-4): > 100 µM
CC50 (MOLT-4; [5]): > 100 µM
GI50 (HCC 2998): 38.4 µM
TGI (HCC 2998): > 100 µM
CC50 (HCC 2998; [5]): > 100 µM
GI50 (LOX IMVI): 3.76 µM
TGI (LOX IMVI): 60.9 µM
CC50 (LOX IMVI; [5]): > 100 µM
GI50 (SNB-19): 21.1 µM
TGI (SNB-19): > 100 µM
CC50 (SNB-19; [5]): > 100 µM
GI50 ([3]; UACC-257): 9 µM
TGI ([3]; UACC-257): > 100 µM
CC50 ([3]; UACC-257, read-out: LC50 (the source's name)): > 100 µM
GI50 ([4]; UO-31): 4.64 µM
TGI ([4]; UO-31): > 100 µM
CC50 ([4]; UO-31, read-out: LC50 (the source's name)): > 100 µM
GI50 (M14): 9.61 µM
TGI (M14): > 100 µM
CC50 (M14; [5]): > 100 µM
GI50 (786-0): 10.4 µM
TGI (786-0): 71.1 µM
CC50 (786-0; [5]): > 100 µM

— ChEMBL document CHEMBL3132854, “Synthesis and anticancer activity evaluation of resveratrolchalcone conjugates” (2014)
